Consider four compounds from patent US5104854A (priority 1991, dated 1992).

Data set [1] concerns vesicular stomatitis virus. In kind it is cell-based.
Data set [2] relates to A/WSN strain of influenza virus. In kind it is cell-based.
Data set [3] deals with Sindbis virus.
Data set [4] concerns intracellular virus protein synthesis. In kind it is cell-based, Sindbis virus. Particulars: peptide 0.1 mg/ml.
Data set [5] has as its system uninfected cells. The following applies: tissue culture cells.
Data set [6] has as its system Semliki Forest virus. Particulars: 4 h, 1 mg/ml.
For data set [7], the system named is viral ribonucleoprotein particles (RNP).
viral ribonucleoprotein particles (RNP), sequence (P15682 whole entry): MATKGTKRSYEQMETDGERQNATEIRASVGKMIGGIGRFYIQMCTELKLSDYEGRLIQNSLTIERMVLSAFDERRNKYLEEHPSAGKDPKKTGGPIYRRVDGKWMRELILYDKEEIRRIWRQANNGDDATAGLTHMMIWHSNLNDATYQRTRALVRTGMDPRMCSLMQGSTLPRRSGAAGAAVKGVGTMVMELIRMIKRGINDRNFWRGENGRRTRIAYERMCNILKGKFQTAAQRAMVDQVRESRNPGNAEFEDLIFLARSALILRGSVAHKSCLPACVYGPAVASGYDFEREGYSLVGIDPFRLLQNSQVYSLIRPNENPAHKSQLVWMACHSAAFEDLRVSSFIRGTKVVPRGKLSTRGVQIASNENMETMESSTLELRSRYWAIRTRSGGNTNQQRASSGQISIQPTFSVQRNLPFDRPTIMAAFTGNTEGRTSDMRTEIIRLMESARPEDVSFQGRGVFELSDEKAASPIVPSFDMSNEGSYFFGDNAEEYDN
Data set [8] relates to viral nucleoprotein and matrix protein. In kind it is cell-based, influenza virus.

Where two headings read alike, the source gives them in different places. Residues, ends and D or L forms follow the SMILES beside them. No end group written: not given here.

In the case of `CCCCCCCC(=O)N[C@@H](CC(C)C)C(=O)N[C@H](C(=O)N1CCC[C@H]1C(=O)N[C@@H](Cc1ccc(O)cc1)C(=O)N[C@@H](C)C(=O)N[C@@H](CC(C)C)C(=O)N[C@@H](C)C(N)=O)[C@@H](C)O` [OCTANOYLATED HEPTAPEPTIDE L-T-P-Y-A-L-A, L-T-P-Y-A-L-A] (HELM PEPTIDE1{[CCCCCCCC(=O)[*:2]].L.T.P.Y.A.L.A.[am]}$$$$V2.0), in data set [1], the “effect on cells infected with vesicular stomatitis virus” value was “no effect”; the “inhibition of vesicular stomatitis virus formation and secretion” value was “no inhibition”. In addition, the “effect on cells infected with influenza” value in data set [2] is reported as “no effect”. Also, the “increase of inhibitory potency by addition of an octanoyl group” value in data set [3] is 10 fold. In data set [4], the “inhibition of intracellular virus protein synthesis” value was “no inhibition”. Moreover, in data set [5], the “effect on uninfected cells” value is given as “no effect”.

On to “LTPYAL-NH2 [HEXAPEPTIDE L-T-P-Y-A-L, L-T-P-Y-A-L]”, for which, in data set [6], the “Degree of Inhibition” value is on record as 36%.

With “N-G-S-L-Q-C-R-I (NGSLQCRI) [8 amino acid peptide lacking the two carboxy-terminal amino acids of HA2 (213-222)]”, the “inhibition of influenza virus release” value in data set [2] (specificity tests, E2 (391-399) at 1 mg/ml in FIG. 2) is “non-inhibitory”.

“N-G-S-L-Q-C-R-I-C-I-NH2 (NGSLQCRICI-NH2; cysteine pairing not given here) [HA2 (213-222), residues 213-222 at the carboxy terminus of the HA2 of A/WSN strain of influenza virus]”: the “block of release of vesicular stomatitis virus” value in data set [1] (200 μg/ml) was 15%. Moreover, the “half-maximal dose, inhibition of virus particle secretion” value in data set [2] is given as “less than 50 μg/ml”. For the same compound, the “inhibition of release of influenza virus particles” value in data set [2] (150 μg/ml peptide (RNP test)) is given as 70%. The “inhibition of release of influenza virus” value in data set [2] (200 μg/ml) was 90%. The “block of virus particle secretion” value in data set [2] (250 μg/ml (225 μM)) is on record as over 90%. For the same compound, in data set [2] (read-out: half-maximal dose, inhibition of virus particle secretion), the IC50 was under 45 µM. In data set [3] (200 μg/ml), the “block in the release of Sindbis virus” value is given as “no block”. The “nucleoprotein in the RNP peak, % of the total cytoplasmic nucleoprotein” value in data set [7] turned out to be 19%. Besides, the “changes in synthesis of intracellular viral nucleoprotein and matrix protein” value in data set [8] (increasing amounts of peptide) was “No significant changes”. Moreover, the “Incorporation (% of control)” value in data set [8] (peptide level 20 μg/ml) was 110 +/-12 % of control; in data set [8] (peptide level 50 μg/ml), 108 +/-12 % of control; in data set [8] (peptide level 100 μg/ml), 94 +/-9 % of control; in data set [8] (peptide level 200 μg/ml) it was 83 % of control; in data set [8] (peptide level 250 μg/ml), 97 % of control.
